Laboratory results from ChEMBL document CHEMBL3779867, “An NMR Biochemical Assay for Fragment-Based Drug Discovery: Evaluation of an Inhibitor Activity on Spermidine Synthase of Trypanosoma cruzi” (J Med Chem, 2016).

Tests used:
[1] = molecular target: T1, Spermidine synthase (Trypanosoma cruzi (strain CL Brener), UniProt Q4CXJ6); assay: Inhibition of Trypanosoma cruzi strain CL Brener N-terminal poly-His tagged spermidine synthase expressed in Escherichia coli BL21(DE3) using 50 uM putrescine as substrate in presence of 100 uM dcSAM incubated for 1 hr by NMR analysis based constant-time batch reaction assay
T1 sequence (Q4CXJ6 whole entry): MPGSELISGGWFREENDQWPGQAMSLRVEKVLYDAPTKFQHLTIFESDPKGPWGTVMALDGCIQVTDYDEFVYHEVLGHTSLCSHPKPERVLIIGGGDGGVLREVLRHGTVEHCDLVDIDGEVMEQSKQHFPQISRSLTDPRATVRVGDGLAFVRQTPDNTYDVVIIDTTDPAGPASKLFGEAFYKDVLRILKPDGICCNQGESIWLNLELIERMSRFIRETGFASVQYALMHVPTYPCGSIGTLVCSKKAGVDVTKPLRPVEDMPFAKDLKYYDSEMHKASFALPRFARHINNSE

[2] = molecular target: T2, Spermidine synthase (Sus scrofa, UniProt Q6QA75); assay: Inhibition of porcine spermidine synthase assessed as production of labeled 5'-methylthioadenosine using putrescine as substrate by enzymatic assay in presence of 10 uM decarboxylated AdoMet
T2 sequence (Q6QA75 whole entry): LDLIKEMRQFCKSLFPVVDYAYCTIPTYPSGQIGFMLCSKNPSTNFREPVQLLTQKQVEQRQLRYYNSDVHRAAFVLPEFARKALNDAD

[3] = molecular target: T1, Spermidine synthase
Description: Inhibition of Trypanosoma cruzi strain CL Brener N-terminal poly-His tagged spermidine synthase expressed in Escherichia coli BL21(DE3) using 0.5 mM putrescine as substrate in presence of 1 mM dcSAM by FA-real time NMR analysis

Row | IC50 [1] | IC50 [2] | IC50 [3] | Compound
1 | 93 nM | 1700 nM | 620 nM | C[C@H]1CC[C@H](N)CC1
2 | 100000 nM |  |  | NC1=Nc2ccccc2SC1
